“And” between values parts separate entries of the source, which are not always exact repeats. Equal entries are not always repeated. Where two headings read alike, the source gives them in different places.
Key:
[1] = In vitro cytotoxicity MTT assay; details: human
[2] = TEAC (Trolox Equivalent Absorbance Capacity) assay; details: for TEAC: μM Trolox equivalents per gram, mean ± SD
Protocol: The TEAC assay was done according to the method developed by Pellegrini et al., which consists of determining the activities of the isolated compounds in terms of μM Trolox equivalents per gram dry weight (μM TE/g) of the test samples. Trolox was used as the standard with concentrations ranging from 0–500 μM. The absorbance was recorded by a Multiskan spectrometer plate reader at wavelength 734 nm. The antioxidant epigallocatechin gallate (EGCG) was used as a positive control.

[3] = tested on: Mtb H37Rv pMSp12::GFP bioreporter strain; assay: microbe, parasite or virus in culture; format: cell-based, Mycobacterium tuberculosis; details: for MIC90: Mycobacterium tuberculosis, H37RV; for ADC MIC increase: may be due to serum binding
[4] = FRAP (Ferric Ion Reducing Antioxidant Power) assay; details: for FRAP: μM ascorbic acid equivalents per gram, mean ± SD
Protocol: The FRAP assay was conducted according to Benzie and Strain’s method, which consists of finding the compounds’ antioxidant potential in terms of μM ascorbic acid equivalents per gram dry weight (μM AAE/g). L-Ascorbic acid was used as a standard in the FRAP assay with concentrations varying between 0 and 1000 μM. The antioxidant potential of the tested samples was read at a wavelength of 593 nm in a Multiskan (Thermo Fisher Scientific, Waltham, MA, USA) spectrum plate reader.

[5] = ORAC (Oxygen Radical Absorbance Capacity) assay; details: for ORAC: μM Trolox equivalents per gram, mean ± SD
Protocol: The ORAC assay was conducted according to Prior et al.’s method, which is a modified version of the original ORAC assay developed by Cao and Prior [26]. In this assay, 2,2′-azobis(2-amidinopropane) dihydrochloride (AAPH) underwent thermal decomposition to generate peroxyl radicals, resulting in a reduction in fluorescence from fluorescein. The antioxidant potential of the isolated compounds was measured by their ability to prevent any loss in fluorescence from fluorescein by neutralizing peroxyl radicals and assessing the sample’s fluorescence area under the curve (AUC). The fluoroskan spectrum plate reader was programmed to record fluorescein’s fluorescence every 2 min after the addition of AAPH with the excitation wavelength at 485 nm and the emission wavelength at 530 nm. The Trolox (TE) stock solution was used as standard with concentration varying between 0 and 417 μM. The ORAC values were calculated using a regression equation (y = mx + c) between Trolox concentration (y in μM) and the net area under the fluorescence decay curve (x). ORAC values were expressed as μM Trolox equivalents (TE) per gram of test samples (μM TE/g). The antioxidant epigallocatechin gallate (EGCG) was used as a positive control.

[6] = in vitro; details: human
[7] = tested on: HaCaT cells; assay: In vitro cytotoxicity MTT assay; details: HaCaT cells
[8] = 168 h, […], 7 days, 90% inhibition, read-out: MIC90, 7H9/ADC/Glu/Tw, 7 Days
[9] = 168 h, […], 7 days, 90% inhibition, read-out: MIC90, 7H9/CAS/ Glu/Tx, 7 Days
[10] = 168 h, […], 7 days, value in brackets, read-out: MIC90, 7H9/ADC/Glu/Tw, 7 Days
[11] = 168 h, […], 7 days, value in brackets, read-out: MIC90, 7H9/CAS/ Glu/Tx, 7 Days
[12] = 168 h, supplement, […], day 7, read-out: GFP Assay - 10pt DR: MIC90 [Media: 7H9 ADC GLU Tw, Day:7]
[13] = 168 h, supplement, […], day 7, read-out: GFP Assay - 10pt DR: MIC90 [Media: 7H9 CAS GLU Tx, Day:7]
[14] = 336 h, […], 14 days, 90% inhibition, read-out: MIC90, 7H9/ADC/Glu/Tw, 14 Days
[15] = 336 h, […], 14 days, 90% inhibition, read-out: MIC90, 7H9/CAS/ Glu/Tx, 14 Days
[16] = 336 h, […], 14 days, value in brackets, read-out: MIC90, 7H9/ADC/Glu/Tw, 14 Days
[17] = 336 h, […], 14 days, value in brackets, read-out: MIC90, 7H9/CAS/ Glu/Tx, 14 Days
[18] = 336 h, supplement, […], day 14, read-out: GFP Assay - 10pt DR: MIC90 [Media: 7H9 ADC GLU Tw, Day:14]
[19] = 336 h, supplement, […], day 14, read-out: GFP Assay - 10pt DR: MIC90 [Media: 7H9 CAS GLU Tx, Day:14]
[20] = span over compounds, medium and day not stated (abstract), read-out: MIC90 against Mycobacterium tuberculosis H37Rv

Row | Structure (SMILES) | IC50 at 24 h [1] | antioxidant activity in TEAC assay (in words) [2] | TEAC [2] | MIC90 [3, 8] | MIC90 [3, 9] | MIC90 [3, 11] | MIC90 [3, 12] | MIC90 [3, 13] | MIC90 [3, 14] | MIC90 [3, 15] | MIC90 [3, 17] | MIC90 [3, 18] | MIC90 [3, 19] | MIC90 [3, 20] | antioxidant activity in FRAP assay (in words) [4] | FRAP [4] | antioxidant activity in ORAC assay (in words) [5] | ORAC [5] | further results
1 | CC(=O)OC1C2=C(C(=O)C(O)=C(C(C)C)C2=O)C2(C)CCCC(C)(C)C2C1O (stereo not drawn) [Compound 2, 7α-acetoxy-6β-hydroxyroyleanone] | 42.7 µg/mL and 109 µM | weak antioxidant activities | 3700.8 ± 1.50 µM TE/g | 14.4 µg/mL | 15.2 µg/mL | 39 µM | 15 µg/mL | 15.2 µg/mL | 14.6 µg/mL | 15.6 µg/mL | 40.1 µM | 33.6 µg/mL | 15.6 µg/mL | 5.61 to 180 µM | weak antioxidant activities | 345.5 ± 0.77 µM AAE/g | good activity | 21,404.1 ± 4.35 µM TE/g | antimycobacterial activity (in words) [3]: moderate activities; MIC90 [3, 10]: 36.8 µM; MIC90 [3, 16]: 37.5 µM
2 | O=C(O[C@@H]1Cc2c(O)cc(O)cc2O[C@@H]1c1cc(O)c(O)c(O)c1)c1cc(O)c(O)c(O)c1 [EGCG, epigallocatechin gallate, reference compound] | – | – | 4722.5 ± 2.22 µM TE/g | – | – | – | – | – | – | – | – | – | – | – | – | 10,455.1 ± 0.81 µM AAE/g | – | 14,970.0 ± 5.53 µM TE/g | –
3 | CC/C(=C(\c1ccccc1)c1ccc(OCCN(C)C)cc1)c1ccccc1 [tamoxifen] | – | – | – | – | – | – | – | – | – | – | – | – | – | – | – | – | – | – | IC50 at 24 h [6]: 22 µg/mL and 59.3 µM
4 | CC(C)c1cc2c(c(O)c1O)[C@@]13CCCC(C)(C)[C@@H]1[C@](O)(OC3)C2=O [Compound 5, carnosolon] | 27.5 µg/mL and 79.8 µM | – | 4876.3 ± 0.49 µM TE/g | > 125 µg/mL | > 125 µg/mL | – | > 125 µg/mL | > 125 µg/mL | > 125 µg/mL | > 125 µg/mL | – | > 125 µg/mL | > 125 µg/mL | – | – | 13,772.2 ± 2.76 µM AAE/g | – | 29,287.4 ± 4.75 µM TE/g | cytotoxic activity against HaCaT cells (in words) [7]: good cytotoxic activities; MIC90 ([3]; in both media, read-out: MIC90 against Mtb H37Rv): > 125 µg/mL
5 | CC(C)C1=C(O)C(=O)C2=C(C1=O)[C@H](O)[C@@H](O)C1C(C)(C)CCC[C@]21C (stereo partly drawn) [Compound 1, 6β,7α-dihydroxyroyleanone] | 60.2 µg/mL and 173 µM | good antioxidant activities | 5080.8 ± 0.04 µM TE/g | > 125 µg/mL | 62.5 µg/mL | 180 µM | > 125 µg/mL | 62.5 µg/mL | > 125 µg/mL | 60.6 µg/mL | 174 µM | > 125 µg/mL | 60.6 µg/mL | 5.61 to 180 µM | very little activity | 541.5 ± 1.59 µM AAE/g | good antioxidant activities | 23,625.0 ± 1.64 µM TE/g | –
6 | CC(C)C1=C(O)C(=O)C2=C(C(=O)C(O)=C3C(C)(C)CCC[C@]23C)C1=O [Compound 4, coleon U quinone] | 33.9 µg/mL and 98.5 µM | weak antioxidant activities | 225.5 ± 1.47 µM TE/g | > 125 µg/mL | 15.6 µg/mL | 45.4 µM | > 125 µg/mL | 15.6 µg/mL | > 125 µg/mL | 1.93 µg/mL | 5.61 µM | > 125 µg/mL | 1.94 µg/mL | 5.61 to 180 µM | weak antioxidant activities | 2109.6 ± 2.78 µM AAE/g | good activity | 21,857.8 ± 5.85 µM TE/g | cytotoxic activity against HaCaT cells (in words) [7]: good cytotoxic activities; ADC MIC increase ([3]; […]): ADC MIC is increased > 4 fold which may be due to serum binding
7 | CO[C@H]1/C=C/O[C@@]2(C)Oc3c(C)c(O)c4c(O)c(c(/C=N/N5CCN(C)CC5)c(O)c4c3C2=O)NC(=O)/C(C)=C\C=C\[C@H](C)[C@H](O)[C@@H](C)[C@@H](O)[C@@H](C)[C@H](OC(C)=O)[C@@H]1C [Rifampicin, reference compound] | – | – | – | 0.001 µg/mL | 0.015 µg/mL | 0.02 µM | 0.001 µg/mL | 0.013 µg/mL | 0.002 µg/mL | 0.035 µg/mL | 0.04 µM | 0.0011 µg/mL | 0.018 µg/mL | – | – | – | – | – | MIC90 [3, 10]: 0.001 µM; MIC90 [3, 16]: 0.002 µM; GFP Assay - 10pt DR: MIC90 [Media: 7H9 ADC GLU Tw, Day:7] ([3]; supplement, […], day 7): 0.002 µg/mL; GFP Assay - 10pt DR: MIC90 [Media: 7H9 CAS GLU Tx, Day:7] ([3]; supplement, […], day 7): 0.015 µg/mL; GFP Assay - 10pt DR: MIC90 [Media: 7H9 ADC GLU Tw, Day:14] ([3]; supplement, […], day 14): 0.001 µg/mL; GFP Assay - 10pt DR: MIC90 [Media: 7H9 CAS GLU Tx, Day:14] ([3]; supplement, […], day 14): 0.035 µg/mL
8 | CC(C)C1=C(O)C(=O)C2=C(C1=O)[C@H](O)C[C@H]1C(C)(C)CCC[C@]21C [Compound 3, horminone] | 53.7 µg/mL and 162 µM | – | Inactive | > 125 µg/mL | 14.3 µg/mL | 43.2 µM | > 125 µg/mL | 14.3 µg/mL | > 125 µg/mL | 3.96 µg/mL | 11.9 µM | > 125 µg/mL | 3.96 µg/mL | 5.61 to 180 µM | – | 296.5 ± 6.72 µM AAE/g | – | 12,443.3 ± 3.61 µM TE/g | ADC MIC increase ([3]; […]): ADC MIC is increased > 4 fold which may be due to serum binding
